In patent US20260184706A1, “PHENYLSULFONAMIDE DERIVATIVES, PREPARATION METHOD THEREFOR, AND PHARMACEUTICAL COMPOSITION FOR PREVENTION OR TREATMENT OF CANCER CONTAINING SAME AS ACTIVE INGREDIENT” (Korea Research Institute of Chemical Technology, priority 2022, published 2026):
pIC50: −log10 of the molar value.

Tests used:
[1] = molecular target: T1, recombinant human PERK protein (Homo sapiens, UniProt Q9NZJ5); assay: PKR-like endoplasmic reticulum kinase (PERK) inhibitory capacity, 33P-ATP filter assay; format: biochemical; settings: 15 uM [gamma-33P-ATP], 40 minutes, room temperature
T1 sequence (Q9NZJ5 30-1116): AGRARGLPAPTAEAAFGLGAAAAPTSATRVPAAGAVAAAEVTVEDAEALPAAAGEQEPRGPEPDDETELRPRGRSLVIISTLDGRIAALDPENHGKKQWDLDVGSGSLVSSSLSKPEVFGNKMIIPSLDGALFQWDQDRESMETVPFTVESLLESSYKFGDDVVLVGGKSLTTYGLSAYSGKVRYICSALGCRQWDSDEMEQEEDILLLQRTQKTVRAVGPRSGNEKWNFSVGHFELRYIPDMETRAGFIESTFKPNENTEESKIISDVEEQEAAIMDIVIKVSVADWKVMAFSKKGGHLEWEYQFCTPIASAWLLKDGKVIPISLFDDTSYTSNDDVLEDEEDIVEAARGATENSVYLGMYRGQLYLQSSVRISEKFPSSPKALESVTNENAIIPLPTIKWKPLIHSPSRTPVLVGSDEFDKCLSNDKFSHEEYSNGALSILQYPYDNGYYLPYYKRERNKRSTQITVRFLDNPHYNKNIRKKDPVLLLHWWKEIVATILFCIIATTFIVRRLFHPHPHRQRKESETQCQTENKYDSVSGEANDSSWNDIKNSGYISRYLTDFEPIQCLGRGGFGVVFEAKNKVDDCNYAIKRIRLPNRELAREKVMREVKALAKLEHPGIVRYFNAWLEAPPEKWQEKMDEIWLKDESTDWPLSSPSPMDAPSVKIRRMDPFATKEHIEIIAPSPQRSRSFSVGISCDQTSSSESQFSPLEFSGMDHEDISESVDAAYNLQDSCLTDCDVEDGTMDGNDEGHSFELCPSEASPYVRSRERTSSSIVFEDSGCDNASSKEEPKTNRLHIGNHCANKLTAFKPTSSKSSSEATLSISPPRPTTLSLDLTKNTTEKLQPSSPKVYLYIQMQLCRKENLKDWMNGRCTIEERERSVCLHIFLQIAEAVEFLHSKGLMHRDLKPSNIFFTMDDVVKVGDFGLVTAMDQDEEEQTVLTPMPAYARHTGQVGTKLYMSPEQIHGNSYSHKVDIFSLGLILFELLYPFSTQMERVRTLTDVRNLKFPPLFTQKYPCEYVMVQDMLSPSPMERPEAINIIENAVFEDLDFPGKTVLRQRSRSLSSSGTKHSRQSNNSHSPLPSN

ATF4 = assay: Inhibition of ATF4, downstream factor of ISR, in HT-1080 cells, Western blot (FIG. 1); format: cell-based, human; settings: amino acid deficiency, compound 50 nM, 24 hours
Method: <Experimental Example 5> Evaluation of Inhibitory Efficacy of ISR-Related Kinase GCN2 Under Amino Acid Deficiency Condition Using Western Blot
HT-1080 cells, a human fibrosarcoma cell line, were cultured in RPMI-1640 medium supplemented with 10% FBS, penicillin (penicillin; 100 IU/ml), and streptomycin (streptomycin; 100 μg/ml). Cells (1×10^6 cells/ml) were seeded onto 100 mm plates (polypropylene tissue culture plate) and incubated for 24 hours in a 37° C., 5% CO2 incubator before being used for experiments.
The following method was used to achieve amino acid deficiency conditions in cells. After 24 hours of cell culture, the cells were cultured in amino acids and L-glutamine-free RPMI-1640 medium supplemented with 10% FBS, penicillin (100 IU/ml), and streptomycin (100 μg/ml). After 24 hours of cell culture in RPMI-1640 without amino acids and L-glutamine, the compound prepared at a concentration of 50 nM was dispensed onto each plate and cultured for 24 hours in a 37° C., 5% CO2 incubator.
In order to measure the signal transduction inhibitory efficacy of GCN among the ISR-related kinases according to the present invention, the following experiment was performed using SDS-PAGE. The fibrosarcoma cell line HT-1080 cells cultured on plates as described above were washed with PBS after removing the culture medium. After removing PBS, the cells were lysed by adding a radio-immunoprecipitation assay buffer (RIPA buffer) containing 50 mM Tris (pH 7.4), 150 mM NaCl, 1% NP-40, 0.5% sodium deoxycholate, 2 mM sodium fluoride, 2 mM EDTA, 0.1% SDS, and a protease/phosphatase inhibitor cocktail to the plate. After centrifugation at 4° C., 13,000×g for 15 minutes, the protein in the upper layer was collected, and the protein concentration was measured at 562 nm using BCA (bicinchoninc acid) reagent, and the amount of protein in all samples was prepared at 20-50 μg.
After making the total volume the same using the sample buffer and RIPA buffer, it was heated at 97° C. for 5 minutes. Then, electrophoresis was performed on 8% or 12% SDS-PAGE at 80 V for 30 minutes and at 160 V for 1 hour and 30 minutes. After electrophoresis, the SDS-PAGE gel was transferred to an NC membrane (nitrocellulose membrane) at 90 V for 2 hours. The NC membrane was placed in TBST (tris buffer saline tween-20; 20 mM tris, 137 mM sodium chloride, 0.1% tween-20, pH 8.0) containing 5% non-fat skim milk, placed on a shaker, and reacted at room temperature for 1 hour.
Each primary antibody was diluted in TBST containing 5% non-fat skim milk, poured onto the NC membrane, and reacted at 4° C. for 24 hours. The membrane was washed three times for 10 minutes each with TBST. The secondary antibodies (anti-rabbit IgG and anti-mouse IgG labeled with horseradish peroxidase (HRP)) were diluted in TBST containing 5% non-fat skim milk and reacted with the membrane at room temperature for 1 hour. Upon completion of the reaction, the membrane was washed three times with TBST for 10 minutes each. Protein expression bands were detected by a chemiluminescence image analyzer (Image Quant LAS 500) after the ECL solution was reacted with the NC membrane.
FIG. 1 is a set of photographs confirming the mechanism proteins that react upon ISR activation, wherein the numbers correspond to example numbers of the present invention. […] They are also known to have an effect on increasing the expression of CHOP (GADD153), the most downstream factor of the mechanism. […] Thus, in addition to the activation of ISR by amino acid deficiency, a significant effect can be expected on the mechanism of inhibition of the activity of PERK, an ISR-related kinase, due to endoplasmic reticulum stress response.

Compound	pIC50 [1]	inhibitory effect on ATF4 (FIG. 1) (ATF4)
COc1ncc(Cl)cc1S(=O)(=O)Nc1ccc(F)c(-n2c(=O)c3cnc(N)nc3n(C)c2=O)c1F [Example 44, N-(3-(7-amino-1-methyl-2,4-dioxo-1,4-dihydropyrimido[4,5-d]pyrimidin-3(2H)-yl)-2,4-difluorophenyl)-5-chloro-2-methoxypyridine-3-sulfonamide]	> 7.00	excellent inhibitory effects
CNc1ncc2c(=O)n(-c3c(F)ccc(NS(=O)(=O)c4cc(Cl)cnc4OC)c3F)ccc2n1 [Example 32, 5-chloro-N-(2,4-difluoro-3-(2-(methylamino)-5-oxopirido[4,3-d]pyrimidin-6(5H)-yl)phenyl)-2-methoxypyridine-3-sulfonamide]	> 7.00	
Nc1ncc2c(=O)n(-c3c(F)ccc(NS(=O)(=O)c4cc(Cl)cnc4Cl)c3F)ccc2n1 [Example 27, N-(3-(2-amino-5-oxopirido[4,3-d]pyrimidin-6(5H)-yl)-2,4-difluorophenyl)-2,5-dichloropyridine-3-sulfonamide]	> 7.00	
COc1ncc(Br)cc1S(=O)(=O)Nc1ccc(F)c(-n2c(=O)c3cnc(N)nc3n(C)c2=O)c1F [Example 46, N-(3-(7-amino-1-methyl-2,4-dioxo-1,4-dihydropyrimido[4,5-d]pyrimidin-3(2H)-yl)-2,4-difluorophenyl)-5-bromo-2-methoxypyridine-3-sulfonamide]	> 7.00	excellent inhibitory effects

Continued, in another order:

pIC50 [1]	Compound	inhibitory effect on ATF4 (FIG. 1) (ATF4)
> 7.00	COc1ncc(Cl)cc1S(=O)(=O)Nc1ccc(F)c(-n2cc(C(F)F)c3nc(N)ncc3c2=O)c1F [Example 22, N-(3-(2-amino-8-(difluoromethyl)-5-oxopirido[4,3-d]pyrimidin-6(5H)-yl)-2,4-difluorophenyl)-5-chloro-2-methoxypyridine-3-sulfonamide]	excellent inhibitory effects
> 7.00	Nc1ncc2c(=O)n(-c3c(F)ccc(NS(=O)(=O)c4cccc5ccccc45)c3F)ccc2n1 [Example 29, N-(3-(2-amino-5-oxopirido[4,3-d]pyrimidin-6(5H)-yl)-2,4-difluorophenyl)naphthalene-1-sulfonamide]	excellent inhibitory effects
